Data as given in patent publication EP4389751A1, “HETEROCYCLIC COMPOUNDS AND USES THEREOF” (Kumquat Biosciences Inc., priority 2021, dated 2024).

test system: GP2D cells; assay: Cell proliferation assay (CellTiter-Glo), K-Ras G12D cells; format: cell-based; details: GP2D cells (K-Ras G12D); read-out: Inhibition of GP2D Cells (IC50)
Method: ASPC-1 (ATCC CRL-1682), Panc-10.05 (ATCC CRL-2547), A427, and GP2D (Sigma 95090714) cell lines comprise a G12D mutation and can be used to assess Ras cellular signaling in vitro, e.g., in response to the compounds herein. […] ASPC-1 culture medium is prepared with RPMI-1640 and 10% heat-inactivated FBS. Panc-10.05 culture medium is prepared with RPMI-1640, 10 Units/ml human recombinant insulin, and 10% FBS. A427 cell culture is prepared with RPMI-1640 and 10% heat-inactivated FBS. GP2D culture medium is prepared with DMEM with 2mM glutamine and 10% heat-inactivated FBS. A Cell Titer-Glo (CTG) luminescent based assay (Promega) is used to assess growth of the cells, as a measurement of the ability of the compounds herein to inhibit Ras signaling in the cells. The cells (e.g., 800 per well) are seeded in their respective culture medium in standard tissue culture-treated 384-well format plates (Falcon #08-772-116) or ultra-low attachment surface 384-well format plates (S-Bio # MS-9384UZ ). The day after plating, cells are treated with a dilution series (e.g., a 9 point 3-fold dilution series) of the compounds herein (e.g., approximately 40 µl final volume per well). Cell viability can be monitored (e.g., approximately 5 days later) according to the manufacturer's recommended instructions, where the CellTiter-Glo reagent is added (e.g., approximately 10 µl), vigorously mixed, covered, and placed on a plate shaker (e.g., approximately for 20 min) to ensure sufficient cell lysis prior to assessment of luminescent signal. The IC50 values are determined using the four parameter fit. The resulting IC50 value is a measurement of the ability of the compounds herein to reduce cell growth of Ras-driven cells (e.g., tumor cell lines) in vitro and/or in vivo.

Structure (SMILES) | IC50 [nM]
C#Cc1c(F)ccc2cc(O)cc(-c3ncc4c(N5CC6CCC(C5)N6C(=O)Nc5ncccn5)nc(OC[C@@]56CCCN5C[C@H](F)C6)nc4c3F)c12 [Compound A131, 3-(7-(8-ethynyl-7-fluoro-3-hydroxynaphthalen-1-yl)-8-fluoro-2-(((2R,7aS)-2-fluorotetrahydro-1H-pyrrolizin-7a(5H)-yl)methoxy)pyrido[4,3-d]pyrimidin-4-yl)-N-(pyrimidin-2-yl)-3,8-diazabicyclo[3.2. 1]octane-8-carboxamide] | ≤ 1000
N#Cc1c(N)sc2c(F)ccc(-c3c(Cl)cc4c(N5CC6CCC(C5)N6C(=O)n5ccnc5C#N)nc(OC[C@@]56CCCN5C[C@H](F)C6)nc4c3F)c12 [Compound A220, 1-(3-(7-(2-amino-3-cyano-7-fluorobenzo[b]thiophen-4-yl)-6-chloro-8-fluoro-2-(((2R,7aS)-2-fluorotetrahydro-1H-pyrrolizin-7a(5H)-yl)methoxy)quinazolin-4-yl)-3,8-diazabicyclo[3.2. 1]octane-8-carbonyl)-1H-imidazole-2-carbonitrile] | ≤ 1000
C#Cc1c(F)ccc2cc(O)cc(-c3ncc4c(N5CC6CCC(C5)N6C(=O)n5cncn5)nc(OC[C@@]56CCCN5C[C@H](F)C6)nc4c3F)c12 [Compound A234, (3-(7-(8-ethynyl-7-fluoro-3-hydroxynaphthalen-1-yl)-8-fluoro-2-(((2R,7aS)-2-fluorotetrahydro-1H-pyrrolizin-7a(5H)-yl)methoxy)pyrido[4,3-d]pyrimidin-4-yl)-3,8-diazabicyclo[3.2.1]octan-8-yl)(1H-1,2,4-triazol-1-yl)methanone] | ≤ 1000
N#Cc1c(N)sc2c(F)ccc(-c3c(Cl)cc4c(N5CC6CCC(C5)N6C(=O)n5ncnc5C#N)nc(OC[C@@]56CCCN5C[C@H](F)C6)nc4c3F)c12 [Compound A246] | ≤ 1000
C#Cc1c(F)ccc2cc(O)cc(-c3ccc4c(N5CC6CCC(C5)N6C(=O)n5cncn5)nc(OC[C@@]56CCCN5C[C@H](F)C6)nc4c3F)c12 [Compound A281, (3-(7-(8-ethynyl-7-fluoro-3-hydroxynaphthalen-1-yl)-8-fluoro-2-(((2R,7aS)-2-fluorotetrahydro-1H-pyrrolizin-7a(5H)-yl)methoxy)quinazolin-4-yl)-3,8-diazabicyclo[3.2.1]octan-8-yl)(1H-1,2,4-triazol-1-yl)methanone] | ≤ 1000

same assay, conditions: GP2d, read-out: Inhibition of GP2D Cells (IC50)

Structure (SMILES) | IC50 [nM]
N#Cc1cnn(C(=O)N2C3CCC2CN(c2nc(OC[C@@]45CCCN4C[C@H](F)C5)nc4c(F)c(-c5ccc(F)c6sc(N)c(C#N)c56)ccc24)C3)c1 [Compound A176, 1-(3-(7-(2-amino-3-cyano-7-fluorobenzo[b]thiophen-4-yl)-8-fluoro-2-(((2R,7aS)-2-fluorotetrahydro-1H-pyrrolizin-7a(5H)-yl)methoxy)quinazolin-4-yl)-3,8-diazabicyclo[3.2. 1]octane-8-carbonyl)-1H-pyrazole-4-carbonitrile] | 1000 to 10000
C#Cc1c(F)ccc2cccc(-c3ccc4c(N5CC6CCC(C5)N6C(=O)n5cncn5)nc(OC[C@@]56CCCN5C[C@H](F)C6)nc4c3F)c12 [Compound A229, (3-(7-(8-ethynyl-7-fluoronaphthalen-1-yl)-8-fluoro-2-(((2R,7aS)-2-fluorotetrahydro-1H-pyrrolizin-7a(5H)-yl)methoxy)quinazolin-4-yl)-3,8-diazabicyclo[3.2.1]octan-8-yl)(1H-1,2,4-triazol-1-yl)methanone] | 1000 to 10000
N#Cc1c(N)sc2c(F)ccc(-c3c(Cl)cc4c(O[C@@H]5C[C@H]6CC[C@@H](C5)N6C(=O)n5cncn5)nc(OC[C@@]56CCCN5C[C@H](F)C6)nc4c3F)c12 [Compound A247, 4-(4-(((1R,3s,5S)-8-(1H-1,2,4-triazole-1-carbonyl)-8-azabicyclo[3.2.1]octan-3-yl)oxy)-6-chloro-8-fluoro-2-(((2R,7aS)-2-fluorotetrahydro-1H-pyrrolizin-7 a(5H)-yl)methoxy)quinazolin-7-yl)-2-amino-7-fluorobenzo[b]thiophene-3-carbonitrile] | 1000 to 10000

biological target: T1, K-Ras G12S (Homo sapiens, UniProt P01116, G12S); assay: HTRF assay of the K-Ras / SOS1 interaction; format: biochemical; details: IC50 (against K-Ras G12D) to IC50 (against K-Ras G12S)
T1 construct: made in house; host or cells: E. coli (e.g., BL21 (DE3))
T1 sequence (P01116 1-188 isoform P01116-2 G12S): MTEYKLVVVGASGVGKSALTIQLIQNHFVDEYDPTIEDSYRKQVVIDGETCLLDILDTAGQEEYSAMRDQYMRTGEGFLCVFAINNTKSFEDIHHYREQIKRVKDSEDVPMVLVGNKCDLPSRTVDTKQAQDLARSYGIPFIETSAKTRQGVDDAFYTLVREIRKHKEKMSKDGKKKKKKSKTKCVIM
Excerpt: This assay can be also used to assess a selective inhibition or reduction of signaling output of a mutant Ras protein relative to a wildtype, or relative to a different mutant Ras protein. For example, the equilibrium interaction of wildtype Kras or K-Ras mutant (e.g., wildtype or a mutant thereof including those mentioned in Example 6) with SOS1 (e.g., hSOS1) can be assessed as a proxy or an indication for a subject compound's ability to bind and inhibit Ras protein. HTRF assay detects from (i) a fluorescence resonance energy transfer (FRET) donor (e.g., antiGST-Europium) that is bound to GST-tagged K-Ras mutant to (ii) a FRET acceptor (e.g., anti-6His-XL665) bound to a His-tagged hSOS 1.
The assay buffer can contain ~5 mM HEPES pH 7.4, -150 mM NaCI, - 1 mM DTT, 0.05% BSA and 0.0025% (v/v) Igepal. A Ras working solution is prepared in an assay buffer containing typically a suitable amount of the protein construct (e.g., GST-tagged K-Ras mutant) and the FRET donor (e.g., antiGST-Eu(K) from Cisbio, France). A SOS1 working solution is prepared in an assay buffer containing suitable amount of the protein construct (e.g., His-hSOS1) and the FRET acceptor (e.g., anti-6His-XL665 from Cisbio, France). A suitable amount of the protein construct will depend on the range of activity or range of IC50 values being detected or under investigation. For detecting IC50 within a range of 500 nM, the protein constructs of the same range of molarity can be utilized.
A fixed volume of DMSO with or without test compound is transferred into a 384-well plate. Ras working solution is added to all wells of the test plate. SOS1 working solution is added to all wells except for those that are subsequently filled the inhibitor control solution. Upon incubation for about 10 minutes or longer, the fluorescence is measured with a M1000Pro plate reader (Tecan) using HTRF detection (excitation 337nm, emission 1 : 620nm, emission 2: 665nm). Compounds are tested in duplicates at different concentrations (for example, 10 µM, 2.5 µM, 0.63 µM, 0.16 µM, 0.04 µM, 0.01 µM test compound). The ratiometric data (i.e., emission 2 divided by emission 1) is used to calculate IC50 values against Ras using GraphPad Prism (GraphPad software). Following this general procedure, samples were tested with or without a subject compound disclosed herein including compounds exemplified in Table 3 to assess their abilities to inhibit K-Ras G12S relative to another mutant (e.g., K-Ras G12D). Signaling output measured in terms of IC50 values can be obtained, a ratio of IC50 against one mutant relative to another mutant can be calculated. For instance, a selective reduction of K-Ras G12S signaling output can be evidenced by a ratio greater than one. In particular, a selective reduction of K-Ras G12S signaling relative to K-Ras G12D signaling is evidenced as the ratio of IC50 (against K-Ras G12D) to IC50 (against K-Ras G12S) is greater than 1. […]

Structure (SMILES) | Ratio of IC50 KRAS G12D vs. IC50 KRAS G12S
N#Cc1ccn(C(=O)N2CC3CCC(C2)N3c2nc(OC[C@@]34CCCN3C[C@H](F)C4)nc3c(F)c(-c4ccc(F)c5sc(N)nc45)c(Cl)cc23)c1 [Compound A290, 1-(8-(7-(2-amino-7-fluorobenzo[d]thiazol-4-yl)-6-chloro-8-fluoro-2-(((2R,7aS)-2-fluorotetrahydro-1H-pyrrolizin-7a(5H)-yl)methoxy)quinazolin-4-yl)-3,8-diazabicyclo[3.2. 1]octane-3-carbonyl)-1H-pyrrole-3-carbonitrile] | A (A: indicates that the ratio of IC50 against KrasG12D vs. IC50 against KrasG12S is 1-fold or greater)
Nc1nc2c(-c3c(Cl)cc4c(N5CC6(CCN(C(=O)n7cncn7)CC6)C5)nc(OC[C@@]56CCCN5C[C@H](F)C6)nc4c3F)ccc(F)c2s1 [Compound A292, (2-(7-(2-amino-7-fluorobenzo[d]thiazol-4-yl)-6-chloro-8-fluoro-2-(((2R,7aS)-2-fluorotetrahydro-1H-pyrrolizin-7a(5H)-yl)methoxy)quinazolin-4-yl)-2,7-diazaspiro[3.5]nonan-7-yl)(1H-1,2,4-triazol-1-yl)methanone] | A (A: indicates that the ratio of IC50 against KrasG12D vs. IC50 against KrasG12S is 1-fold or greater)
Nc1nc2c(-c3c(Cl)cc4c(OC5CC6CN(C(=O)n7cncn7)CC65)nc(OC[C@@]56CCCN5C[C@H](F)C6)nc4c3F)ccc(F)c2s1 (stereo partly drawn) [Compound A297, (6-((7-(2-amino-7-fluorobenzo[d]thiazol-4-yl)-6-chloro-8-fluoro-2-(((2R,7aS)-2-fluorotetrahydro-1H-pyrrolizin-7a(5H)-yl)methoxy)quinazolin-4-yl)oxy)-3-azabicyclo[3.2.0]heptan-3-yl)(1H-1,2,4-triazol-1-yl)methanone] | A (A: indicates that the ratio of IC50 against KrasG12D vs. IC50 against KrasG12S is 1-fold or greater)
Nc1nc2c(-c3c(Cl)cc4c(NC5C6CN(C(=O)n7cncn7)CC65)nc(OC[C@@]56CCCN5C[C@H](F)C6)nc4c3F)ccc(F)c2s1 (stereo partly drawn) [Compound A299, (6-((7-(2-amino-7-fluorobenzo[d]thiazol-4-yl)-6-chloro-8-fluoro-2-(((2R,7aS)-2-fluorotetrahydro-1H-pyrrolizin-7a(5H)-yl)methoxy)quinazolin-4-yl)amino)-3-azabicyclo[3.1.0]hexan-3-yl)(1H-1,2,4-triazol-1-yl)methanone] | A (A: indicates that the ratio of IC50 against KrasG12D vs. IC50 against KrasG12S is 1-fold or greater)
